Experimental data taken from patent publication US20130123287A1, “CONTROL AGENT FOR SOFT ROT AND CONTROL METHOD FOR THE SAME” (ISHIHARA SANGYO KAISHA, LTD., priority 2010, published 2013).

Legend:
[1] = test system: bacteria causing the soft rot (Erwinia carotovora); test: Inhibition test of growth of bacteria causing soft rot, Reference Test Example 2; format: cell-based; conditions: for formed colonies (growth state), grade: PSA medium, 27 degrees Celsius, 2 days
Description: Inhibition test of growth of bacteria causing soft rot of potato An inhibition test of the growth of bacteria causing the soft rot was done, when a control agent was directly applied to the bacteria causing the soft rot. A given volume of each pesticide of azoxystrobin (Amistar-20 FLOWABLE [trade name], manufactured by Syngenta Japan K.K.), penthiopyrad (GAIA WG [trade name], manufactured by Mitsui Chemicals Agro, Inc.), flusulfamide (SCABLOCK SC [trade name] manufactured by Mitsui Chemicals Agro, Inc.), and streptomycin (Mycin Wettable powder [trade name] manufactured by Hokko Chemical Industry Co., Ltd.) was added together with a suspension of the bacteria causing the soft rot (Erwinia carotovora) to a preliminarily dissolved PSA culture medium (55 degrees Celsius) for subsequent thorough agitation, which was then spread on a plate for culturing at 27 degrees Celsius for 2 days, to examine the growth state. Subsequently, the formed colonies were examined according to the following three grades. • +: at the same level as the level of non-treated lot.
(§1) Plus or minus: apparently less than the colonies of the non-treated lot. • −: almost no colonies observed.

[2] = test system: bacteria causing the soft rot (Erwinia carotovora); test: Inhibition test of growth of bacteria causing soft rot, Reference Test Example 6; format: cell-based; conditions: for formed colonies (growth state), grade: PSA medium, 27 degrees Celsius, 3 days
Description: An inhibition test of the growth of bacteria causing the soft rot was done, when a control agent was directly applied to the bacteria causing the soft rot. A given volume of each pesticide of fludioxonil (Seibia FL [trade name] manufactured by Syngenta Japan K.K.), iminoctadine albesilate salt (Bellkute WP [trade name], manufactured by Nippon Soda Co., Ltd.), iprodione (Rovral WP [trade name] manufactured by Bayer Crop Science Co., Ltd.), and streptomycin (Mycin Wettable powder [trade name] manufactured by Hokko Chemical Industry Co., Ltd.) was added together with a suspension of the bacteria causing the soft rot (Erwinia carotovora) to a preliminarily dissolved PSA culture medium (55 degrees Celsius) for subsequent thorough agitation, which was then spread on a plate for culturing at 27 degrees Celsius for 3 days, to examine the growth state. Subsequently, the formed colonies were examined according to the following three grades. • +: at the same level as the level of non-treated lot.
as §1

Structure (SMILES): [H]/N=C(/N)N[C@H]1[C@H](O)[C@@H](O)[C@H](O[C@@H]2O[C@@H](C)[C@](O)(C=O)[C@H]2O[C@@H]2O[C@@H](CO)[C@H](O)[C@@H](O)[C@@H]2NC)[C@@H](N/C(N)=N\[H])[C@@H]1O [Streptomycin]
- formed colonies (growth state), grade ([1]; 1 ppm active ingredient): −, −
- formed colonies (growth state), grade ([1]; 10 ppm active ingredient): −, −
- direct antibacterial activity against Erwinia carotovora (in words) ([1]; active ingredient concentration of 1 ppm): exerted a direct antibacterial activity
- formed colonies (growth state), grade ([2]; 1 ppm active ingredient): +, +
- formed colonies (growth state), grade ([2]; 10 ppm active ingredient): −, ±
- direct antibacterial activity against Erwinia carotovora (in words) ([2]; active ingredient concentration of 10 ppm): exerted a direct antibacterial activity
